Data on 41 molecules can be found in patent US10508120B2, “TYK2 inhibitors and uses thereof” (Nimbus Lakshmi, Inc., priority 2017, dated 2019).

For orientation: IC50 means the concentration needed to halve the response being measured. What is called Kd is a measure of binding affinity in units of concentration. A higher Kd goes with lower affinity. As a reminder, the inhibition is the drop in the measured response relative to a control, in per cent.

The target in assay [1] is JAK2/JAK2 homdimeric complex (Homo sapiens (Human), UniProt O60674). Nature of the assay: GM-CSF Induced pSTAT5 in Human PBMC. It is filed as cell-based. Particulars: GM-CSF 5 ng/mL for 20 minutes, pSTAT5 by MSD, read-out: PBMC_GMCSF_pSTAT5 IC50.
JAK2/JAK2 homdimeric complex, sequence (O60674 whole entry, the tested form may be a part): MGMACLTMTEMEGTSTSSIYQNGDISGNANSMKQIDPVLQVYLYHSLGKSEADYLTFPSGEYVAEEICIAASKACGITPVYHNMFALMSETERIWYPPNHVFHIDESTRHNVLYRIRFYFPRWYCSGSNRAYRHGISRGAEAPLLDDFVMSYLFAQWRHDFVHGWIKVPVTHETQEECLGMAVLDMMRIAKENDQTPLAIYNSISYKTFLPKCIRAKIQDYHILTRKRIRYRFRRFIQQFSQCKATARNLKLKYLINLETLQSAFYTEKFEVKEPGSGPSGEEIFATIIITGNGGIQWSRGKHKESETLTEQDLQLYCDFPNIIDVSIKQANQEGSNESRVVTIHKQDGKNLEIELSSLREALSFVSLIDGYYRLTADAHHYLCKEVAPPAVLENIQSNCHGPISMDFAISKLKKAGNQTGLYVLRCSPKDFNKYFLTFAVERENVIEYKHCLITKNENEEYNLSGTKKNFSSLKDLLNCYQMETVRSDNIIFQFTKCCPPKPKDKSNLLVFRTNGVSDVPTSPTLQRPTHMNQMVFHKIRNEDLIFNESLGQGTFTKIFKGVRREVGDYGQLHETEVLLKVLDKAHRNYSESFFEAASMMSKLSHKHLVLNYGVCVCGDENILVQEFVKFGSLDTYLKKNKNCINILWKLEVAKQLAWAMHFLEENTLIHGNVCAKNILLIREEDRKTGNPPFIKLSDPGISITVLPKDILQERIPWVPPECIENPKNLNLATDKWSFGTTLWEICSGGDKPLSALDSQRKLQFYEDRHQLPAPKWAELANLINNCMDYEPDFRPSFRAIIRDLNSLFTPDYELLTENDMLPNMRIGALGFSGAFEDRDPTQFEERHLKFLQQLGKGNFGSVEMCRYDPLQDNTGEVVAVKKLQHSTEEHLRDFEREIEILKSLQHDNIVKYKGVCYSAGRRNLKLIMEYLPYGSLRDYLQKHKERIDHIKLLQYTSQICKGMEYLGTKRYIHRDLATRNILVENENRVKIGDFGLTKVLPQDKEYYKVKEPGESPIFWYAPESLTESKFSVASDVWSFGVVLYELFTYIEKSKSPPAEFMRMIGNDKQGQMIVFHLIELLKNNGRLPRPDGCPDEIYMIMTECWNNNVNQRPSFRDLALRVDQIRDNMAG
JAK2/JAK2 homdimeric complex, sequence (P32927 17-897 partner): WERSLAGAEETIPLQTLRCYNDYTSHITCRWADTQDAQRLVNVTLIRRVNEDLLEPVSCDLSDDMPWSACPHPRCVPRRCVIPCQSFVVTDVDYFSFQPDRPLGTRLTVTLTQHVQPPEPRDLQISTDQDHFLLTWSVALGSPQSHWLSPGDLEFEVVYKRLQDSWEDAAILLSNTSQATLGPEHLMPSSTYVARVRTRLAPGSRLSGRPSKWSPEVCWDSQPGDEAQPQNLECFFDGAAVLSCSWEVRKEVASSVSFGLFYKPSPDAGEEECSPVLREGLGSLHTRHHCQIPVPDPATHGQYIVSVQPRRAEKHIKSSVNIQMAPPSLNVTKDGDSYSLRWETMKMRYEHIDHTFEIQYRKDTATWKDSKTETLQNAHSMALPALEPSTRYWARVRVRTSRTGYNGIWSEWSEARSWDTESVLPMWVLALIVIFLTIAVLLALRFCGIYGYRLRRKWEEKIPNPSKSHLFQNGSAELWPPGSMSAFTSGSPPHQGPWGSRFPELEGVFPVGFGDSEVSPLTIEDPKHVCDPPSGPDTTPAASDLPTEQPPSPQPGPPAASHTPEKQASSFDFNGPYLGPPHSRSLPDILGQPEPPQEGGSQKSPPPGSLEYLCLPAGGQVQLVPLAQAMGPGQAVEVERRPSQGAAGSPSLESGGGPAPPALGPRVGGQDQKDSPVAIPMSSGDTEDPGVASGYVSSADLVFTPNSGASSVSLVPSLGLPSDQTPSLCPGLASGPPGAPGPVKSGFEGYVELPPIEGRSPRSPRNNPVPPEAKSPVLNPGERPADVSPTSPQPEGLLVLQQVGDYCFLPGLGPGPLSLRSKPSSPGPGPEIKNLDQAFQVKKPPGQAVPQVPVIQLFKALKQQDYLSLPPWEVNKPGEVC
Assay [2] deals with human TYK2 (JH2domain-pseudokinase) (Homo sapiens (Human), UniProt P29597). Description: TYK2 JH2 Domain Binding Assay (KINOMEscan). In outline:
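Competition binding of an NFkB-DBD fusion of human TYK2 JH2 (G556–D888), expressed in HEK293 and used as crude extract at <0.1 nM, against immobilized ligand beads; 1 h at room temperature in PBS/Tween/DTT/BSA buffer, 0.9% DMSO.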

For a further assay, the target named is JAK2 kinase domain (JH1) (Homo sapiens (Human), UniProt O60674). Nature of the assay: JAK2 Radioactive Kinase Assay. It is filed as biochemical. Particulars: 10 μM compound, 10 μM ATP; for inhibition at 10 µM: read-out: JAK2 JH1% Inhibition @ 10 μM. In outline: (§1)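 Each kinase domain is incubated with test compound at 10 μM. Activity is then measured radiometrically and expressed as percent inhibition relative to uninhibited enzyme.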
JAK2 kinase domain (JH1), sequence (O60674 849-1124): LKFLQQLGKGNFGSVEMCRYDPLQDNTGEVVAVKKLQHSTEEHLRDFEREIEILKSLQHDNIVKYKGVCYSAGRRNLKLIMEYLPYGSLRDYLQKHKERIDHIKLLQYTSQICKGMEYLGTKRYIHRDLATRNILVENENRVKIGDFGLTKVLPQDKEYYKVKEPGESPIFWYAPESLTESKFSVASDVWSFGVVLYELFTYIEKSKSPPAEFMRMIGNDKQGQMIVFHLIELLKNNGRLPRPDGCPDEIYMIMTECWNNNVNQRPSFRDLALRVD

Another assay concerns the target Tyk2 kinase domain (DH1) (Homo sapiens (Human), UniProt P29597). Description: Tyk2 Radioactive Kinase Assay. Particulars: 10 μM compound, 10 μM ATP; for inhibition at 10 µM: read-out: Tyk2 JH1% Inhibition @ 10 μM. It is filed as biochemical. In outline:
as §1

Tyk2 kinase domain (DH1), sequence (P29597 897-1176): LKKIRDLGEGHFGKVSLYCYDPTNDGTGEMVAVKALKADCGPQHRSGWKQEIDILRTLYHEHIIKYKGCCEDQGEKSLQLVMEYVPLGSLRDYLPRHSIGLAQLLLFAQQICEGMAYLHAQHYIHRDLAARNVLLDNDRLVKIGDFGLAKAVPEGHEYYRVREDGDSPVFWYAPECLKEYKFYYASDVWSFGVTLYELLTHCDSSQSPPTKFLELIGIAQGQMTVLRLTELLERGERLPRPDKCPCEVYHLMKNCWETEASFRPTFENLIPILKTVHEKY
human TYK2 (JH2domain-pseudokinase), sequence (P29597 556-888): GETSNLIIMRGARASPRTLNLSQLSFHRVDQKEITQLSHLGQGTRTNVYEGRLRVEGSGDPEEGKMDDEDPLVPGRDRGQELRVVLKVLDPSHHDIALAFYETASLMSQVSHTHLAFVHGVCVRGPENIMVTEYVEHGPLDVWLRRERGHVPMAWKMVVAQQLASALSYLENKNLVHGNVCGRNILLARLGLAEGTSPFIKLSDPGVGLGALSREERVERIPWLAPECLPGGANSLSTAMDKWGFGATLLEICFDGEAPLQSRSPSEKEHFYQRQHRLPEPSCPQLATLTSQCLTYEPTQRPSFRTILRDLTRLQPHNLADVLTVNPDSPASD

As to `CNc1cc(Nc2cc(C)cc(C)c2)nc2c(C(=O)NC3CC3)cnn12` [I-1, N-cyclopropyl-5-((3,5-dimethylphenyl)amino)-7-(methylamino)pyrazolo[1,5-a]pyrimidine-3-carboxamide], the IC50 in assay [1] is above 50000 nM.
Same read-out and setting: to `CNc1cc(Nc2cccnc2OC)nc2c(C(=O)NC3CC3)cnn12` [I-8] belongs above 50000 nM; to `CNc1cc(Nc2cccn(-c3ccc(F)cc3)c2=O)nc2c(C(=O)NC3CC3)cnn12` [I-107, N-cyclopropyl-5-((1-(4-fluorophenyl)-2-oo-1,2-dihydropyridin-3-yl)amino)-7-(methylamino)pyrazolo[1,5-a]pyrimidine-3-carboxamide], above 2500 nM; to `CNc1cc(Nc2cccn(-c3ncccc3F)c2=O)nc2c(C(=O)NC3CC3)cnn12` [I-143], above 50000 nM.
Still for that read-out and setting: to `[2H]C([2H])([2H])Oc1ncccc1Nc1cc(NC)n2ncc(C(=O)NC3CC3)c2n1` [I-175, N-cyclopropyl-5-((2-(methoxy-d3)pyridin-3-yl)amino)-7-(methylamino) pyrazolo[1,5-a]pyrimidine-3-carboxamide] belongs above 12500 nM; to `CNc1cc(Nc2cccn(-c3ccc(F)cn3)c2=O)nc2c(C(=O)N[C@@H]3CC[C@H]3OC)cnn12` [I-817], above 2500 nM; to `CNc1cc(Nc2cccn(-c3cccnc3)c2=O)nc2c(C(=O)N[C@H]3CC[C@@H]3OC)cnn12` [I-864], above 50000 nM.
Same read-out and setting: with `CNc1cc(Nc2cccn(-c3nc(C)co3)c2=O)nc2c(C(=O)N[C@H]3CC[C@@H]3OC)cnn12` [I-890] the figure was above 12500 nM; with `CNc1cc(Nc2cccn(-c3cnc(C)o3)c2=O)nc2c(C(=O)N[C@@H]3CC[C@H]3OC)cnn12` [I-895], above 50000 nM.
Consider `CNc1cc(Nc2cccn(C(C)C)c2=O)nc2c(C(=O)N[C@@H]3CC[C@H]3OC)cnn12` [I-917], for which, in assay [1], the IC50 was above 50000 nM.
In the case of `CNc1cc(Nc2cccn(-c3ccc(F)cn3)c2=O)nc2c(C(=O)N[C@H]3CC[C@@H]3OC)cnn12` [I-926], in assay [1], the IC50 is above 2500 nM.
On the same count and under the same terms, with `CNc1cc(Nc2cccn(-c3nc(C)co3)c2=O)nc2c(C(=O)N[C@H]3CC[C@@H]3OC)cnn12` [I-975] the figure was above 50000 nM; with `CNc1cc(Nc2cccn(C(C)C)c2=O)nc2c(C(=O)N[C@H]3CC[C@@H]3OC)cnn12` [I-980], above 50000 nM; with `CNc1cc(Nc2cccn(C3CCOCC3)c2=O)nc2c(C(=O)N[C@H]3CC[C@@H]3OC)cnn12` [I-1014], above 50000 nM.
The same measure, in the same setting: to `CNc1cc(Nc2cccn([C@H]3CC[C@H](OC)CC3)c2=O)nc2c(C(=O)N[C@H]3CC[C@@H]3OC)cnn12` [I-1062] belongs above 50000 nM.
In assay [2], `CNc1cc(Nc2cccn([C@@H]3CCC[C@H](OC)C3)c2=O)nc2c(C(=O)N[C@H]3CC[C@@H]3OC)cnn12` [I-1083] displayed a Kd of 1 to 10 nM. The inhibition at 10 µM at JAK2 kinase domain (JH1) and at Tyk2 kinase domain (DH1) was below 50% in each case.
Consider `CNc1cc(Nc2cccn([C@@H]3CCC[C@@H](OC)C3)c2=O)nc2c(C(=O)NCC3(CO)CC3)cnn12` [I-1087], for which the Kd in assay [2] is below 0.2 nM. The inhibition at 10 µM on JAK2 kinase domain (JH1) and on Tyk2 kinase domain (DH1) was below 50% throughout.
Molecule `CNc1cc(Nc2cccn([C@@H]3C[C@H]3F)c2=O)nc2c(C(=O)N[C@H]3CC[C@H]3O)cnn12` [I-1089] had an equilibrium dissociation constant (Kd) in assay [2] below 0.2 nM. Besides, the inhibition at 10 µM at JAK2 kinase domain (JH1) and on Tyk2 kinase domain (DH1) was below 50% throughout.
In turn, `CNc1cc(Nc2cccn([C@@H]3C[C@H]3F)c2=O)nc2c(C(=O)N[C@@H]3CC[C@H]3O)cnn12` [I-1091] returned a Kd in assay [2] below 0.2 nM. For the same molecule, the inhibition at 10 µM on JAK2 kinase domain (JH1) and at Tyk2 kinase domain (DH1) was below 50% in each case.
`CNc1cc(Nc2cccn([C@H]3C[C@@H]3F)c2=O)nc2c(C(=O)N[C@@H]3CC[C@H]3O)cnn12` [I-1092]: the Kd in assay [2] lay within 0.2 to 1 nM. Moreover, the inhibition at 10 µM at JAK2 kinase domain (JH1) and on Tyk2 kinase domain (DH1) was below 50% each time.
In assay [2], `CNc1cc(Nc2cccn([C@@H]3CCC[C@@H]3O)c2=O)nc2c(C(=O)N[C@H]3CC[C@@H]3OC)cnn12` [I-1100] gave a Kd of 0.2 to 1 nM. Moreover, the inhibition at 10 µM at JAK2 kinase domain (JH1) and on Tyk2 kinase domain (DH1) was below 50% in each case.
In the case of `CNc1cc(Nc2cccn([C@H]3CC[C@H]3O)c2=O)nc2c(C(=O)NC3CC3)cnn12` [I-1103], the Kd in assay [2] lay within 1 to 10 nM. For the same molecule, the inhibition at 10 µM at JAK2 kinase domain (JH1) and on Tyk2 kinase domain (DH1) was below 50% each time.
In the case of `CNc1cc(Nc2cccn([C@@H]3CC[C@@H]3O)c2=O)nc2c(C(=O)NC3CC3)cnn12` [I-1104], in assay [2], the dissociation constant Kd is below 0.2 nM. For the same molecule, the inhibition at 10 µM on JAK2 kinase domain (JH1) and on Tyk2 kinase domain (DH1) was below 50% each time.
In assay [2], `CNc1cc(Nc2cccn([C@H]3CC[C@](C)(OC)CC3)c2=O)nc2c(C(=O)N[C@@H]3CC[C@H]3OC)cnn12` [I-1106] gave a Kd of 1 to 10 nM. Further, the inhibition at 10 µM on JAK2 kinase domain (JH1) and at Tyk2 kinase domain (DH1) was below 50% each time.
As to `CNc1cc(Nc2cccn([C@H]3CC[C@](C)(OC)CC3)c2=O)nc2c(C(=O)N[C@H]3CC[C@@H]3O)cnn12` [I-1108], the Kd in assay [2] is below 0.2 nM. Also, the inhibition at 10 µM on JAK2 kinase domain (JH1) and on Tyk2 kinase domain (DH1) was below 50% in each case.
`CNc1cc(Nc2cccn([C@H]3CC[C@]4(CCCO4)CC3)c2=O)nc2c(C(=O)NC3CC3)cnn12` [I-1109] returned a Kd in assay [2] below 0.2 nM. Moreover, the inhibition at 10 µM at JAK2 kinase domain (JH1) and on Tyk2 kinase domain (DH1) was below 50% each time.
`CNc1cc(Nc2cccn([C@@H]3CC[C@@H]3O)c2=O)nc2c(C(=O)N[C@@H]3C[C@@H]3F)cnn12` [I-1110] showed a dissociation constant Kd in assay [2] below 0.2 nM. In addition, the inhibition at 10 µM at JAK2 kinase domain (JH1) and on Tyk2 kinase domain (DH1) was below 50% each time.
The molecule `CNc1cc(-c2cn(C3CCOCC3)c3ncccc23)nc2c(C(=O)N[C@H]3CC[C@H]3O)cnn12` [I-1113] showed a Kd in assay [2] below 0.2 nM. Further, the inhibition at 10 µM at JAK2 kinase domain (JH1) and on Tyk2 kinase domain (DH1) was below 50% each time.
In assay [2], `CNc1cc(-c2cn(C3CCOCC3)c3ncccc23)nc2c(C(=O)N[C@@H]3CC[C@@H]3O)cnn12` [I-1114] came in with a Kd of 0.2 to 1 nM. Further, the inhibition at 10 µM on JAK2 kinase domain (JH1) and at Tyk2 kinase domain (DH1) was below 50% throughout.
In turn, `CNc1cc(Nc2cccc3ocnc23)nc2c(C(=O)N[C@H]3CC[C@@H]3OC)cnn12` [I-1115] had a dissociation constant (Kd) in assay [2] of 1 to 10 nM. Also, the inhibition at 10 µM on JAK2 kinase domain (JH1) and on Tyk2 kinase domain (DH1) was below 50% each time.
In assay [2], `CNc1cc(Nc2cccn(C3CCCCC3)c2=O)nc2c(C(=O)NC[C@@H](C)CO)cnn12` [I-1119] displayed a dissociation constant Kd below 0.2 nM. For the same molecule, the inhibition at 10 µM on JAK2 kinase domain (JH1) and at Tyk2 kinase domain (DH1) was below 50% in each case.
Take `CNc1cc(Nc2cccn(C3CCCCC3)c2=O)nc2c(C(=O)NC[C@H](C)CO)cnn12` [I-1120]: in assay [2], the Kd is 0.2 to 1 nM. The inhibition at 10 µM at JAK2 kinase domain (JH1) and on Tyk2 kinase domain (DH1) was below 50% each time.
In assay [2], `CNc1cc(Nc2cccn([C@@H]3C[C@H]3F)c2=O)nc2c(C(=O)NCC3(CO)CC3)cnn12` [I-1122, 5-((1-((1R,2R)-2-fluorocyclopropyl)-2-oxo-1,2-dihydropyridin-3-yl)amino)-N-((1-(hydroxymethyl)cyclopropyl)methyl)-7-(methylamino)pyrazolo[1,5-a]pyrimidine-3-carboxamide] gave a Kd of 0.2 to 1 nM. The inhibition at 10 µM at JAK2 kinase domain (JH1) and at Tyk2 kinase domain (DH1) was below 50% each time.
`CNc1cc(Nc2cccn([C@H]3CCC[C@@H](OC)C3)c2=O)nc2c(C(=O)N[C@@H]3CC[C@H]3O)cnn12` [I-1123] registered a Kd in assay [2] below 0.2 nM. Further, the inhibition at 10 µM at JAK2 kinase domain (JH1) and on Tyk2 kinase domain (DH1) was below 50% throughout.
Regarding `CNc1cc(Nc2cccn([C@H]3CCC[C@@H](OC)C3)c2=O)nc2c(C(=O)N[C@H]3CC[C@@H]3O)cnn12` [I-1124], in assay [2], the Kd was below 0.2 nM. Also, the inhibition at 10 µM on JAK2 kinase domain (JH1) and on Tyk2 kinase domain (DH1) was below 50% each time.
`CNc1cc(Nc2cccn([C@H]3CCC[C@@H](OC)C3)c2=O)nc2c(C(=O)N[C@H]3CC[C@@H]3OC)cnn12` [I-1125] registered a Kd in assay [2] above 10 nM. For the same molecule, the inhibition at 10 µM on JAK2 kinase domain (JH1) and on Tyk2 kinase domain (DH1) was below 50% throughout.
Regarding `CNc1cc(Nc2cccn([C@H]3CCC[C@@H](OC)C3)c2=O)nc2c(C(=O)N[C@@H]3CC[C@H]3OC)cnn12` [I-1126], in assay [2], the Kd is below 0.2 nM. Further, the inhibition at 10 µM at JAK2 kinase domain (JH1) and at Tyk2 kinase domain (DH1) was below 50% throughout.
`CNc1cc(Nc2cccn([C@@H]3CCCC[C@@H]3OC)c2=O)nc2c(C(=O)N[C@H]3CC[C@@H]3OC)cnn12` [I-1127] gave a Kd in assay [2] above 10 nM. For the same molecule, the “JAK2 JH1% Inhibition @ 10 μM” value at JAK2 kinase domain (JH1) was “A (percent inhibition at 10 μM lower than 50)”. In addition, the “Tyk2 JH1% Inhibition @ 10 μM” value on Tyk2 kinase domain (DH1) is “A (percent inhibition at 10 μM lower than 50)”.
Consider `CNc1cc(Nc2cccn([C@@H]3CCCC[C@@H]3OC)c2=O)nc2c(C(=O)N[C@@H]3CC[C@H]3OC)cnn12` [I-1128], for which the Kd in assay [2] lay in the range of 1 to 10 nM. The inhibition at 10 µM at JAK2 kinase domain (JH1) and on Tyk2 kinase domain (DH1) was below 50% each time.
`CNc1cc(Nc2cccn([C@@H]3CCC[C@@H](O)C3)c2=O)nc2c(C(=O)N[C@H]3CC[C@@H]3OC)cnn12` [I-1129] gave a Kd in assay [2] of 1 to 10 nM. Further, at JAK2 kinase domain (JH1), the “JAK2 JH1% Inhibition @ 10 μM” value is on record as “A (percent inhibition at 10 μM lower than 50)”. Also, the “Tyk2 JH1% Inhibition @ 10 μM” value at Tyk2 kinase domain (DH1) was “A (percent inhibition at 10 μM lower than 50)”.
The molecule `CNc1cc(Nc2cccn([C@@H]3CCC[C@@H](O)C3)c2=O)nc2c(C(=O)N[C@@H]3CC[C@H]3OC)cnn12` [I-1130] displayed a Kd in assay [2] below 0.2 nM. Moreover, the inhibition at 10 µM at JAK2 kinase domain (JH1) and on Tyk2 kinase domain (DH1) was below 50% throughout.
